# Assay results from PubChem BioAssay AID1963849 (Molecular Pharmacology Branch, DTP, NCI, 2024).
# Tested on: 299254-011-R-J1-PDC complex spheroid viability
# Assay: Anticancer human tumor 299254-011-R-J1-PDC patient-derived melanoma cell line growth inhibition [POLQ]
# Settings: for IC50: curve of first compound; for viability, T/C: stronger effect = lower value
# Procedure, shortened: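 Three-cell-type spheroids modelling solid tumor plus stroma served as the readout system; POL inhibitors were tested individually and in combination, concentration ranges set by clinical Cmax where known.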
# [1] = second compound 0.0316 µM, first compound 0.0316 µM
# [2] = second compound 0.0316 µM, first compound 0.1 µM
# [3] = second compound 0.0316 µM, first compound 0.316 µM
# [4] = second compound 0.0316 µM, first compound 1 µM
# [5] = second compound 0.1 µM, first compound 0.0316 µM
# [6] = second compound 0.1 µM, first compound 0.1 µM
# [7] = second compound 0.1 µM, first compound 0.316 µM
# [8] = second compound 0.1 µM, first compound 1 µM
# [9] = second compound 0.316 µM, first compound 0.0316 µM
# [10] = second compound 0.316 µM, first compound 0.1 µM
# [11] = second compound 0.316 µM, first compound 0.316 µM
# [12] = second compound 0.316 µM, first compound 1 µM
# [13] = second compound 1 µM, first compound 0.0316 µM
# [14] = second compound 1 µM, first compound 0.1 µM
# [15] = second compound 1 µM, first compound 0.316 µM
# [16] = second compound 1 µM, first compound 1 µM
# [17] = second compound 3.16 µM, first compound 0.0316 µM
# [18] = second compound 3.16 µM, first compound 0.1 µM
# [19] = second compound 3.16 µM, first compound 0.316 µM
# [20] = second compound 3.16 µM, first compound 1 µM
# [21] = second compound 10 µM, first compound 0.0316 µM
# [22] = second compound 10 µM, first compound 0.1 µM
# [23] = second compound 10 µM, first compound 0.316 µM
# [24] = second compound 10 µM, first compound 1 µM
# [25] = second compound 0.0316 µM, first compound 0.00316 µM
# [26] = second compound 0.0316 µM, first compound 0.01 µM
# [27] = second compound 0.1 µM, first compound 0.00316 µM
# [28] = second compound 0.1 µM, first compound 0.01 µM
# [29] = second compound 0.316 µM, first compound 0.00316 µM
# [30] = second compound 0.316 µM, first compound 0.01 µM
# [31] = second compound 1 µM, first compound 0.00316 µM
# [32] = second compound 1 µM, first compound 0.01 µM
# [33] = second compound 3.16 µM, first compound 0.00316 µM
# [34] = second compound 3.16 µM, first compound 0.01 µM
# [35] = second compound 10 µM, first compound 0.00316 µM
# [36] = second compound 10 µM, first compound 0.01 µM
# 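Further: spheroids exposed to drugs for one week before measurement.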
# 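Wherever viability, T/C is given: percent viability relative to DMSO vehicle control taken as 100%.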
smiles,measurement,setting,value
COc1cc(C2c3cc4c(cc3C(OC3OC5COC(C)OC5C(O)C3O)C3COC(=O)C23)OCO4)cc(OC)c1O (stereo unspecified) + Cc1cccc(N(C)C(=O)C2C(O)CCN2c2nc(C)cc(C(F)(F)F)c2C#N)c1,IC50,second compound 0.0316 µM,9540 nM
same,IC50,second compound 0.1 µM,> 10000 nM
same,IC50,second compound 0.316 µM,> 10000 nM
same,IC50,second compound 1 µM,> 10000 nM
same,IC50,second compound 3.16 µM,> 10000 nM
same,IC50,second compound 10 µM,> 10000 nM
same,"viability, T/C",[1],87.6%
same,"viability, T/C",[2],89.2%
same,"viability, T/C",[3],102%
same,"viability, T/C",[4],86.8%
same,"viability, T/C","second compound 0.0316 µM, first compound 3.16 µM",75.6%
same,"viability, T/C","second compound 0.0316 µM, first compound 10 µM",48.9%
same,"viability, T/C",[5],98%
same,"viability, T/C",[6],91.9%
same,"viability, T/C",[7],107%
same,"viability, T/C",[8],87.2%
same,"viability, T/C","second compound 0.1 µM, first compound 3.16 µM",68%
same,"viability, T/C","second compound 0.1 µM, first compound 10 µM",54.8%
same,"viability, T/C",[9],94.6%
same,"viability, T/C",[10],102%
same,"viability, T/C",[11],101%
same,"viability, T/C",[12],99.5%
same,"viability, T/C","second compound 0.316 µM, first compound 3.16 µM",70%
same,"viability, T/C","second compound 0.316 µM, first compound 10 µM",59.5%
same,"viability, T/C",[13],107%
same,"viability, T/C",[14],93.1%
same,"viability, T/C",[15],91.6%
same,"viability, T/C",[16],79.2%
same,"viability, T/C","second compound 1 µM, first compound 3.16 µM",76%
same,"viability, T/C","second compound 1 µM, first compound 10 µM",58%
same,"viability, T/C",[17],98.5%
same,"viability, T/C",[18],86.5%
same,"viability, T/C",[19],88%
same,"viability, T/C",[20],97.3%
same,"viability, T/C","second compound 3.16 µM, first compound 3.16 µM",74.8%
same,"viability, T/C","second compound 3.16 µM, first compound 10 µM",53.9%
same,"viability, T/C",[21],84.5%
same,"viability, T/C",[22],86.7%
same,"viability, T/C",[23],86.1%
same,"viability, T/C",[24],82.8%
same,"viability, T/C","second compound 10 µM, first compound 3.16 µM",60.2%
same,"viability, T/C","second compound 10 µM, first compound 10 µM",59.2%
CC[C@@]1(O)C(=O)OCc2c1cc1n(c2=O)Cc2cc3c(CN(C)C)c(O)ccc3nc2-1 + Cc1cccc(N(C)C(=O)C2C(O)CCN2c2nc(C)cc(C(F)(F)F)c2C#N)c1,IC50,second compound 0.0316 µM,> 100 nM
same,IC50,second compound 0.1 µM,> 100 nM
same,IC50,second compound 0.316 µM,> 100 nM
same,IC50,second compound 1 µM,> 100 nM
same,IC50,second compound 3.16 µM,> 100 nM
same,IC50,second compound 10 µM,> 100 nM
same,"viability, T/C","second compound 0.0316 µM, first compound 0.000316 µM",101%
same,"viability, T/C","second compound 0.0316 µM, first compound 0.001 µM",100%
same,"viability, T/C",[25],95.6%
same,"viability, T/C",[26],104%
same,"viability, T/C",[1],117%
same,"viability, T/C",[2],81%
same,"viability, T/C","second compound 0.1 µM, first compound 0.000316 µM",104%
same,"viability, T/C","second compound 0.1 µM, first compound 0.001 µM",98.6%
same,"viability, T/C",[27],97%
same,"viability, T/C",[28],113%
same,"viability, T/C",[5],113%
same,"viability, T/C",[6],84.1%
same,"viability, T/C","second compound 0.316 µM, first compound 0.000316 µM",110%
same,"viability, T/C","second compound 0.316 µM, first compound 0.001 µM",115%
same,"viability, T/C",[29],103%
same,"viability, T/C",[30],120%
same,"viability, T/C",[9],116%
same,"viability, T/C",[10],80.9%
same,"viability, T/C","second compound 1 µM, first compound 0.000316 µM",111%
same,"viability, T/C","second compound 1 µM, first compound 0.001 µM",112%
same,"viability, T/C",[31],100%
same,"viability, T/C",[32],123%
same,"viability, T/C",[13],99.2%
same,"viability, T/C",[14],90.5%
same,"viability, T/C","second compound 3.16 µM, first compound 0.000316 µM",108%
same,"viability, T/C","second compound 3.16 µM, first compound 0.001 µM",115%
same,"viability, T/C",[33],89.1%
same,"viability, T/C",[34],106%
same,"viability, T/C",[17],119%
same,"viability, T/C",[18],89.6%
same,"viability, T/C","second compound 10 µM, first compound 0.000316 µM",94.9%
same,"viability, T/C","second compound 10 µM, first compound 0.001 µM",102%
same,"viability, T/C",[35],90.8%
same,"viability, T/C",[36],97%
same,"viability, T/C",[21],95.3%
same,"viability, T/C",[22],69.7%
COc1cccc(OCCCN)c1-c1cc(Nc2cnc(C#N)cn2)n[nH]1 + Cc1cccc(N(C)C(=O)C2C(O)CCN2c2nc(C)cc(C(F)(F)F)c2C#N)c1,IC50,second compound 0.0316 µM,188 nM
same,IC50,second compound 0.1 µM,136 nM
same,IC50,second compound 0.316 µM,95.4 nM
same,IC50,second compound 1 µM,207 nM
same,IC50,second compound 3.16 µM,105 nM
same,IC50,second compound 10 µM,112 nM
same,"viability, T/C",[25],99.2%
same,"viability, T/C",[26],108%
same,"viability, T/C",[1],71.2%
same,"viability, T/C",[2],64.1%
same,"viability, T/C",[3],39.6%
same,"viability, T/C",[4],42%
same,"viability, T/C",[27],92.7%
same,"viability, T/C",[28],104%
same,"viability, T/C",[5],75.6%
same,"viability, T/C",[6],53.7%
same,"viability, T/C",[7],49%
same,"viability, T/C",[8],38.2%
same,"viability, T/C",[29],100%
same,"viability, T/C",[30],106%
same,"viability, T/C",[9],74.7%
same,"viability, T/C",[10],52%
same,"viability, T/C",[11],49.2%
same,"viability, T/C",[12],45.6%
same,"viability, T/C",[31],90.6%
same,"viability, T/C",[32],103%
same,"viability, T/C",[13],71.1%
same,"viability, T/C",[14],65.9%
same,"viability, T/C",[15],40.6%
same,"viability, T/C",[16],38.9%
same,"viability, T/C",[33],120%
same,"viability, T/C",[34],107%
same,"viability, T/C",[17],72.3%
same,"viability, T/C",[18],52.2%
same,"viability, T/C",[19],41%
same,"viability, T/C",[20],33.9%
same,"viability, T/C",[35],103%
same,"viability, T/C",[36],85.1%
same,"viability, T/C",[21],64.8%
same,"viability, T/C",[22],54.1%
same,"viability, T/C",[23],37.8%
same,"viability, T/C",[24],39.8%
